According to article PMC6862080, “Blood Compatibility—An Important but Often Forgotten Aspect of the Characterization of Antimicrobial Peptides for Clinical Application” (International Journal of Molecular Sciences, 2019):
Peptide text beside a SMILES is read from it. * marks the point of attachment. Myristoyl = CCCCCCCCCCCCCC(=O)*; Lauroyl = CCCCCCCCCCCC(=O)*; Decanoyl = CCCCCCCCCC(=O)*; Octanoyl = CCCCCCCC(=O)*

What was measured:
E. coli (ATCC 11303) = assay: microbe, parasite or virus in culture; format: cell-based; conditions: ATCC 11303, pH 7.4
S. aureus (ATCC 12600) = assay: microbe, parasite or virus in culture; format: cell-based; conditions: ATCC 12600, pH 7.4
erythrocyte membranes [1] = assay: Hemolysis in whole blood (Kahn method); format: cell-based, human
Procedure: (§1) Hemolysis was tested with fresh citrate anticoagulated blood from healthy volunteers as well as with blood cells which were suspended in phosphate buffered saline (10 mM pH 7.4). Afterwards, 100 μL AMP solution was added to 500 μL blood to finally achieve AMP concentrations of 8, 32, and 128 μg/mL. As the negative and positive control, 100 μL PBS buffer and 100 μL 12% Triton-X buffer was added to 500 μL blood, respectively. After incubation on an orbital shaker for 60 min at 37 °C, the cells were removed by centrifugation and 100 μL of the supernatant were transferred to a 96 well microplate for hemolysis measurement. The hemolysis was calculated from the extinction at the wavelengths 562, 578, and 598 nm with a Synergy 2 microplate reader (BioTek, Winooski, VT, USA) according to the method published by Kahn.

erythrocyte membranes [2] = assay: Hemolysis in RBC suspended in PBS (Kahn method); format: cell-based, human; conditions: pH 7.4
Procedure: as §1

platelets [3] = assay: Platelet activation, platelet count in citrate anticoagulated PRP; format: cell-based, human; conditions: 128 μg/mL, 2 h, 37 °C, Sysmex analyzer, n = 3
Procedure: (§2) Since it was observed that some AMPs are able to activate the plasmatic coagulation system of heparinized and citrate anticoagulated blood, the influence of this peptides on platelets was investigated. For this purpose, fresh heparinized and citrated blood were collected from three donors. The blood was centrifuged at 500 g for 5 min and platelet rich plasma (PRP) was obtained. The PRP was incubated at 37 °C for 2 h with 128 μg/mL AMP, PMB, and LL-37. PRP without any additives served as the control. After incubation, the platelet number was determined by a Sysmex Automated Hematology Analyzer KX-21-N (Kobe, Japan). In addition, the PRP samples were prepared for SEM to visualize the morphology of the thrombocytes. After incubation, 10 μL PRP were diluted with 990 μL PBS (0.01 M) and filtered through a 0.2 μm membrane (Membrane Filter Isopore 0.2 μm, Merck, Darmstadt, Germany). The platelets were retained on the membrane, washed with 1 mL PBS, and fixed with 1 mL glutaraldehyde solution (2.5% glutaraldehyde in physiological saline solution). After an incubation time of 60 min, the samples were dehydrated using a series of ethanol (30%, 50%, 60%, 70%, 80%, 90%, and 100%). Afterwards the samples were dried overnight at RT, sputtered with gold and visualized with a scanning electron microscope (FLEXSem 1000, Hitachi, Japan).

platelets [4] = assay: Platelet activation, platelet count in heparin anticoagulated PRP; format: cell-based, human; conditions: 128 μg/mL, 2 h, 37 °C, Sysmex analyzer, n = 3
Procedure: as §2

LPS from P. aeruginosa = assay: Endotoxin inactivation in human serum, chromogenic LAL test (P. aeruginosa LPS); format: biochemical; conditions: 500 ng/mL peptide, n = 3; for Reduction of the endotoxin activity in serum vs positive control (in words): 5 ng/mL P. aeruginosa LPS
Procedure: The LPS neutralization study in serum was conducted using a chromogenic Limulus Amebocyte Lysate (LAL) test (Charles River Laboratories, MA, USA). The LAL test is the most established method for quantifying LPS. This method uses amebocyte lysate from Limulus polyphemus, wherein the presence of LPS triggers a defense mechanism that induces coagulation. The LAL test is used successfully for detection of LPS in a wide variety of industrial, pharmaceutical, and research applications, such as water supplies, parenteral fluids, drugs for intravenous administration, and certain biologic fluids (e.g., cerebrospinal fluid). Therefore, serum, which was obtained from freshly drawn blood, was spiked with 500 ng/mL AMPs, PMB or LL-37 before adding 5 ng/mL LPS from E. coli or P. aeruginosa. As positive and negative controls, native serum with and without LPS was used, respectively. Endotoxin activity was measured using the LAL assay according to the manufacturer’s specifications.

platelets [5] = assay: SEM imaging of platelet morphology in PRP; format: cell-based, human; conditions: 128 μg/mL, 2 h, 37 °C
Procedure: as §2

human leukocytes = assay: Cytotoxicity on leukocytes in whole blood, flow cytometry (7-AAD); format: cell-based; conditions: whole blood, 128 μg/mL, flow cytometry, n = 3
Procedure: The measurement of the membrane destabilization of leukocytes by AMPs was carried out by flow cytometry. […] Whole blood without AMPs or antibiotics was used as a control. After incubation, the proportion of apoptotic and dead cells was determined by flow cytometry. To achieve this, blood samples were diluted 1:100 with 0.01 M phosphate buffered saline and centrifuged at 300 g for 10 min. The supernatant was removed, and cells were stained with 10 μL CD45 pacific blue (leukocyte marker; Beckman coulter, Brea, CA) and 10 μL 7-AAD (a marker for dead cells; Sigma-Aldrich, Steinheim, Germany) for 15 min at room temperature in the dark. After incubation, 1.8 mL lysis buffer (1:10 dilution in distilled water) was added, mixed, and incubated for 10 min at room temperature in the dark. This was followed by two washing steps (2300 g, 5 min, room temperature) and the cells were resuspended in a final volume of 200 μL 0.01 M PBS for measurement. Flow cytometry was performed using a Gallios flow cytometer (Beckman Coulter, Brea, CA, USA) equipped with 405 nm, 488 nm, and 638 nm lasers and the Kaluza Analysis Software (Beckman Coulter, Brea, CA, USA), which was used for measurement and data analysis. Blood cells which were incubated in 70% methanol before staining served as the positive control and blood cells without any additives were used as the negative control.

plasmatic coagulation = assay: Clotting batch test in citrate plasma; format: biochemical, human
Procedure: Since the acylated LF11-322 peptides cause plasmatic coagulation of citrate anticoagulated plasma, separate clotting experiments were performed with this peptide group. The aim was to check whether the coagulation activation is dependent on the AMP concentration and on the acyl chain length. […] Plasma without additives served as the negative control, whereas plasma spiked with CaCl2/MgCl2 (500/250 mM) solution to restore the physiological calcium and magnesium level in plasma was used as the positive control. Incubation was performed at 37 °C for 60 min. […] In order to ensure that the measured turbidity of the plasma is caused by fibrin formation, the fibrinogen and D-Dimer concentrations were additionally determined. During plasmatic clotting, the fibrinogen level decreases and the D-Dimer level in serum increases. Both were analyzed on a Sysmex CA560 with the corresponding reagents (Siemens Healthineers, Erlangen, Germany).

Peptide concentration that triggers clotting of citrate plasma (plasmatic coagulation) [µg/mL]	Compound	Minimal Inhibitory Concentration, E. coli, PBS (E. coli (ATCC 11303)) [µg/mL]	Minimal Inhibitory Concentration, S. aureus, PBS (S. aureus (ATCC 12600)) [µg/mL]	Free Hemoglobin, BLOOD, 8 μg/mL (erythrocyte membranes [1]) [mg/dL]	Free Hemoglobin, BLOOD, 32 μg/mL (erythrocyte membranes [1]) [mg/dL]	Free Hemoglobin, BLOOD, 128 μg/mL (erythrocyte membranes [1]) [mg/dL]	Free Hemoglobin, RBC in PBS, 8 μg/mL (erythrocyte membranes [2]) [mg/dL]	Free Hemoglobin, RBC in PBS, 32 μg/mL (erythrocyte membranes [2]) [mg/dL]	Platelet count in citrate anticoagulated PRP vs control (in words) (platelets [3])	Platelet count in heparinized PRP vs control (in words) (platelets [4])	Reduction of endotoxin activity of P. aeruginosa LPS (LPS from P. aeruginosa; 5 ng/mL LPS) [%]	Reduction of the endotoxin activity in serum vs positive control (in words) (LPS from P. aeruginosa)	Platelet morphology by SEM, citrate anticoagulated PRP (in words) (platelets [5])	Cytotoxic effect on leukocytes in whole blood (in words) (human leukocytes)
	CCCCCCCCCCCC(=O)N1CCC[C@H]1C(=O)N[C@@H](Cc1ccccc1)C(=O)N[C@@H](Cc1c[nH]c2ccccc12)C(=O)N[C@@H](CCCNC(=N)N)C(=O)N[C@H](C(=O)N[C@@H](CCCNC(=N)N)C(=O)N[C@H](C(=O)N[C@@H](CCCNC(=N)N)C(=O)N[C@@H](CCCNC(=N)N)C(N)=O)[C@@H](C)CC)[C@@H](C)CC [LF11-322-C12] (Lauroyl-PFWRIRIRR-NH2)	32	16	2.4 ± 2.6	8.6 ± 8.6	3.2 ± 4.5	15.5 ± 1.2	36.1 ± 2.0	significantly reduce the platelet count	no significant difference in platelet count				
	CCCCCCCCCCCCCC(=O)N[C@@H](Cc1ccccc1)C(=O)N[C@@H](Cc1c[nH]c2ccccc12)C(=O)N[C@@H](CCCNC(=N)N)C(=O)N[C@@H](CCCNC(=N)N)C(=O)N[C@@H](Cc1ccccc1)C(=O)N[C@@H](Cc1c[nH]c2ccccc12)C(=O)N[C@@H](CCCNC(=N)N)C(=O)N[C@@H](CCCNC(=N)N)C(N)=O [LF11-227-C14] (Myristoyl-FWRRFWRR-NH2)	> 128	> 128	3.4 ± 2.1	3.1 ± 0.9	2.6 ± 3.5	18.3 ± 12.8	41.9 ± 19.9			37 ± 5	significant (p < 0.05) reduction		
	CCCCCCCC(=O)N[C@@H](Cc1ccccc1)C(=O)N[C@@H](Cc1c[nH]c2ccccc12)C(=O)N[C@@H](CCCNC(=N)N)C(=O)N[C@@H](CCCNC(=N)N)C(=O)N[C@@H](Cc1ccccc1)C(=O)N[C@@H](Cc1c[nH]c2ccccc12)C(=O)N[C@@H](CCCNC(=N)N)C(=O)N[C@@H](CCCNC(=N)N)C(N)=O [LF11-227-C8] (Octanoyl-FWRRFWRR-NH2)	> 128	> 128	3.6 ± 2.8	10.5 ± 13.5	2.3 ± 3.7	13.0 ± 0.7	15.9 ± 2.6						
	H-FWRRFWRR-NH2 [LF11-227-NH2]	8	8	2.4 ± 3.1	9.5 ± 12.3	2.5 ± 3.8	10.0 ± 2.2	14.6 ± 3.2						
	CCCCCCCCCCCC(=O)N[C@@H](Cc1ccccc1)C(=O)N[C@@H](Cc1c[nH]c2ccccc12)C(=O)N[C@@H](CCCNC(=N)N)C(=O)N[C@@H](CCCNC(=N)N)C(=O)N[C@@H](Cc1ccccc1)C(=O)N[C@@H](Cc1c[nH]c2ccccc12)C(=O)N[C@@H](CCCNC(=N)N)C(=O)N[C@@H](CCCNC(=N)N)C(N)=O [LF11-227-C12] (Lauroyl-FWRRFWRR-NH2)	> 128	> 128	2.6 ± 1.4	4.3 ± 2.5	2.5 ± 3.6	11.6 ± 3.2	26.3 ± 12.3				significant (p < 0.05) reduction		
	H-PFWRIRIRR-NH2 [LF11-322-NH2]	4	4	5.0 ± 5.3	5.9 ± 4.4	2.6 ± 3.7	10.4 ± 2.4	14.2 ± 3.5					strongly change their shape	no cytotoxic properties on leukocytes
	CCCCCCCCCC(=O)N[C@@H](Cc1ccccc1)C(=O)N[C@@H](Cc1c[nH]c2ccccc12)C(=O)N[C@@H](CCCNC(=N)N)C(=O)N[C@@H](CCCNC(=N)N)C(=O)N[C@@H](Cc1ccccc1)C(=O)N[C@@H](Cc1c[nH]c2ccccc12)C(=O)N[C@@H](CCCNC(=N)N)C(=O)N[C@@H](CCCNC(=N)N)C(N)=O [LF11-227-C10] (Decanoyl-FWRRFWRR-NH2)	> 128	> 128	2.3 ± 0.6	4.2 ± 1.4	2.7 ± 4.2	18.0 ± 6.7	45.1 ± 20.5						
	CCCCCCCCCC(=O)N1CCC[C@H]1C(=O)N[C@@H](Cc1ccccc1)C(=O)N[C@@H](Cc1c[nH]c2ccccc12)C(=O)N[C@@H](CCCNC(=N)N)C(=O)N[C@H](C(=O)N[C@@H](CCCNC(=N)N)C(=O)N[C@H](C(=O)N[C@@H](CCCNC(=N)N)C(=O)N[C@@H](CCCNC(=N)N)C(N)=O)[C@@H](C)CC)[C@@H](C)CC [LF11-322-C10] (Decanoyl-PFWRIRIRR-NH2)	8	8	2.5 ± 2.0	6.0 ± 4.6	3.0 ± 4.5	16.6 ± 2.4	48.5 ± 5.5						
≥ 256	CCCCCCCC(=O)N1CCC[C@H]1C(=O)N[C@@H](Cc1ccccc1)C(=O)N[C@@H](Cc1c[nH]c2ccccc12)C(=O)N[C@@H](CCCNC(=N)N)C(=O)N[C@H](C(=O)N[C@@H](CCCNC(=N)N)C(=O)N[C@H](C(=O)N[C@@H](CCCNC(=N)N)C(=O)N[C@@H](CCCNC(=N)N)C(N)=O)[C@@H](C)CC)[C@@H](C)CC [LF11-322-C8] (Octanoyl-PFWRIRIRR-NH2)	8	8	2.2 ± 0.5	9.0 ± 3.8	2.7 ± 3.7	12.9 ± 1.5	26.1 ± 2.5						
